Data taken from the NIST ThermoML archive (doi:10.1021/je900048r).
Numbers after ± are expanded uncertainties.

Test: xn = mol fraction of the nth substance listed
Settings: Liquid, Other PVT measurement

CCCCn1cc[n+](C)c1.F[B-](F)(F)F [1-butyl-3-methylimidazolium tetrafluoroborate] + CCO
mass density [kg/m3]
Settings	x1 = 0.2	x1 = 0.3	x1 = 0.3999	x1 = 0.4998	x1 = 0.6	x1 = 0.6996	x1 = 0.8001	x1 = 0.8998	x1 = 1
313.15 K, 200 kPa	965 ± 10	1022 ± 10	1071 ± 11	1098 ± 11	1121 ± 11	1142 ± 11	1158 ± 12	1173 ± 12	1185 ± 12
313.15 K, 600 kPa	966 ± 10	1023 ± 10	1072 ± 11	1098 ± 11	1122 ± 11	1142 ± 11	1158 ± 12	1174 ± 12	1186 ± 12
313.15 K, 1000 kPa	966 ± 10	1023 ± 10	1072 ± 11	1098 ± 11	1122 ± 11	1143 ± 11	1159 ± 12	1174 ± 12	1186 ± 12
313.15 K, 1400 kPa	966 ± 10	1024 ± 10	1072 ± 11	1099 ± 11	1123 ± 11	1144 ± 11	1159 ± 12	1174 ± 12	1186 ± 12
313.15 K, 1800 kPa	967 ± 10	1024 ± 10	1073 ± 11	1099 ± 11	1123 ± 11	1144 ± 11	1160 ± 12	1174 ± 12	1187 ± 12
313.15 K, 2000 kPa	967 ± 10	1024 ± 10	1073 ± 11	1102 ± 11	1123 ± 11	1144 ± 11	1160 ± 12	1175 ± 12	1187 ± 12
353.15 K, 200 kPa	935 ± 9	993 ± 10	1042 ± 10	1070 ± 11	1094 ± 11	1116 ± 11	1131 ± 11	1147 ± 12	1159 ± 12
353.15 K, 600 kPa	935 ± 9	993 ± 10	1042 ± 10	1071 ± 11	1094 ± 11	1116 ± 11	1132 ± 11	1147 ± 12	1160 ± 12
353.15 K, 1000 kPa	935 ± 9	993 ± 10	1043 ± 10	1071 ± 11	1095 ± 11	1116 ± 11	1132 ± 11	1147 ± 12	1160 ± 12
353.15 K, 1400 kPa	936 ± 9	994 ± 10	1043 ± 10	1071 ± 11	1095 ± 11	1116 ± 11	1133 ± 11	1147 ± 12	1160 ± 12
353.15 K, 1800 kPa	936 ± 9	994 ± 10	1043 ± 10	1071 ± 11	1095 ± 11	1116 ± 11	1133 ± 11	1148 ± 12	1161 ± 12
353.15 K, 2000 kPa	937 ± 9	994 ± 10	1043 ± 10	1072 ± 11	1096 ± 11	1117 ± 11	1133 ± 11	1148 ± 12	1161 ± 12
393.15 K, 600 kPa	904 ± 9	964 ± 10	1014 ± 10	1042 ± 10	1067 ± 11	1090 ± 11	1106 ± 11	1122 ± 11	1135 ± 11
393.15 K, 1000 kPa	904 ± 9	965 ± 10	1014 ± 10	1043 ± 10	1068 ± 11	1090 ± 11	1106 ± 11	1122 ± 11	1135 ± 11
393.15 K, 1400 kPa	905 ± 9	965 ± 10	1015 ± 10	1043 ± 10	1068 ± 11	1090 ± 11	1107 ± 11	1122 ± 11	1135 ± 11
393.15 K, 1800 kPa	905 ± 9	965 ± 10	1015 ± 10	1044 ± 10	1069 ± 11	1091 ± 11	1107 ± 11	1123 ± 11	1136 ± 11
393.15 K, 2000 kPa	905 ± 9	966 ± 10	1015 ± 10	1044 ± 10	1069 ± 11	1091 ± 11	1108 ± 11	1123 ± 11	1136 ± 11
433.15 K, 1400 kPa	871 ± 9	935 ± 9	987 ± 10	1016 ± 10	1041 ± 10	1065 ± 11	1081 ± 11	1097 ± 11	1112 ± 11
433.15 K, 1800 kPa	872 ± 9	935 ± 9	987 ± 10	1017 ± 10	1042 ± 10	1066 ± 11	1082 ± 11	1097 ± 11	1113 ± 11
433.15 K, 2000 kPa	872 ± 9	935 ± 9	987 ± 10	1017 ± 10	1042 ± 10	1066 ± 11	1082 ± 11	1098 ± 11	1113 ± 11
